Source: patent US8337907B2, “Use of volatile oil from plants in preparing medicaments for preventing and treating diabetes” (priority 2007, dated 2012)
Like-named read-outs stand apart in the source and are kept apart here.

Experiments:
[1] = cited from earlier work
type 2 diabetes patients = conditions: for postprandial blood glucose peak at breakfast: 0.9 ml at three meals daily, 7 days
Description: Patient keep measurable middling food and drink in the interim.

[2] = test system: type 2 diabetes rat model; assay: test of type 2 diabetes rat model (streptozotocin, fast-generated NIDDM model); type: in vivo, Wistar rats; parameters: unit not given here; conditions: 2.4 ml/kg intubated, fasting 4 hours, blood 2 hours after dose; before treatment 27.14 ± 1.154; p<0.01
healthy volunteers = assay: test to healthy volunteers; type: in vivo, human; conditions: for postprandial blood glucose peak at breakfast: 0.9 ml at three meals daily, 7 days
Description: A person, Healthy have not any disease.
A person, healthy without any disease. fasting blood glucose was waved in 5.0-5.4 mmol/L (79-96 mg/dl), in postprandial blood glucose 8-12.2 mmol/L ([…]) between. Abnormal glucose tolerance test.

[3] = test system: drug-induced diabetic rats; assay: blood glucose in drug-induced diabetic rats, summary statement; type: in vivo; conditions: oral 0.8-2.4 ml/kg, within 0.5-2 hours
Excerpt: The present invent can reduce fasting blood glucose of that severe case streptozotocin-induced rats of type 1 and type 2 diabetes.

[4] = test system: type 1 diabetes rat model (IDDM); assay: test of type 1 diabetes rat model (streptozotocin, day 3-6 after injection); type: in vivo, rats; conditions: 2.4 ml/kg intubated, 2 hours after dose
Excerpt: Establishment of a type 1 diabetes rat test model. Recent years, more people have definitely expressed that viewed streptozotocin-induced of diabetes test model. Although, it is a model of type 1 diabetes in principle, but can using as a model of type 2 diabetes.

[5] = test system: delayed type diabetic Wistar rat model (type 1 diabetes); assay: delayed type streptozotocin plus CFA/IFA type 1 diabetes rat model; type: in vivo, Wistar rats; parameters: unit not given here; conditions: table: d-limonene 0.8 ml/kg; fasting 4 hours, 2 hours after dose; before treating 24.4 ± 2.958; p<0.01
healthy rats = assay: blood glucose of healthy rats; conditions: rat, in vivo
[6] = water, ethanol; cited from earlier work
[7] = Example 6 patient, treatment for 12 weeks
[8] = Example 7 patient, 7 days treatment

C=C(C)[C@H]1CC=C(C)CC1 [d-limonene, (4R)-1-methyl-4-prop-1-en-2-ylcyclohexene]
absorption from the gastrointestinal ([1]; after oral administration): absorbed rapidly | absorbed drug excreted by the urethra ([1]; within 48 hours): 75-95% | postprandial blood glucose peak at breakfast (type 2 diabetes patients; Example 6 patient, before: under 15.6 mmol/L): 11.8 mmol/L | hypoglycemic reaction without food (type 2 diabetes patients; Example 6 patient, 6-8 hours after the meal, after 12 weeks): have not hypoglycemic reaction | time of postprandial blood glucose peak (type 2 diabetes patients; Example 6 patient, 7 days treatment): 1.25 h | peak value time (type 2 diabetes patients; [7]): 0.75 h | postprandial blood glucose peak value (type 2 diabetes patients; [7]): 10.4 mmol/L | postprandial blood glucose peak at breakfast (type 2 diabetes patients; Example 7 patient, before: maximum 23 mmol/L): 18.7 mmol/L | blood glucose level average reduce, before to after treating (type 2 diabetes patients; [8]): 6.99 mmol/L | time of postprandial blood glucose peak (type 2 diabetes patients; [8]): 1.25 h | effect on postprandial blood glucose levels (type 2 diabetes patients; type 2 diabetes patients, 0.9 ml after three meals daily): clear and stably reduce postprandial blood glucose levels | fasting glucose after treatment [2]: 19.39 ± 6.064 | blood glucose compared before and after treatment (healthy volunteers; Example 8, healthy person): blood glucose basically unchanged | time of postprandial blood glucose peak (healthy volunteers; Example 8, healthy person): 0.5 h | postprandial blood glucose peak at breakfast (healthy volunteers; Example 8, healthy person): 6.3 to 8.4 mmol/L | blood glucose compared before and after treatment (healthy volunteers; Example 9, person): blood glucose basically unchanged | time of postprandial blood glucose peak (healthy volunteers; Example 9, person): 0.5 h | postprandial blood glucose peak at breakfast (healthy volunteers; Example 9, person, abnormal glucose tolerance test, before 8-12.2 mmol/L): 10.3 to 11.7 mmol/L | effect on postprandial or fasting blood glucose level in healthy (healthy volunteers; human, in vivo): do not reduce postprandial or fasting blood glucose level | effect on blood glucose level [3]: blood glucose level reduce a lot | Blood glucose, First day ([4]; IDDM group 25.27 ± 2.632, p<0.01): 20.26 ± 5.039 mmol/L | Blood glucose, Four day ([4]; IDDM group 25.97 ± 2.966, p>0.05): 23.32 ± 4.891 mmol/L | Blood glucose, Third day ([4]; IDDM group 26.08 ± 3.896, p<0.05): 21.88 ± 5.754 mmol/L | Blood glucose, 1-4 days Average ([4]; IDDM group 26.17 ± 2.858, p<0.05): 21.89 ± 5.230 mmol/L | Blood glucose, Second day ([4]; IDDM group 27.36 ± 1.243, p<0.01): 22.08 ± 5.421 mmol/L | fasting glucose after treating [5]: 17.45 ± 1.886 | effect on blood glucose of healthy rats (healthy rats): do not reduce blood glucose of healthy rats

C=C(C)C1CC=C(C)CC1 (stereo not shown) [Limonene, 1-methyl-4-prop-1-en-2-yl-cyclohexene]
Perilla acid methyl ester and Dihydrotestosterone Perilla acid methyl ester in plasma ([1]; from initial limonene, after oral administration): 5% | eliminated in the CO2 exhaled ([1]; in vivo): 2% | eliminated in the dejecta ([1]; in vivo): 5% | converted to primary metabolites Dihydrotestosterone acid Perilla and Perilla acid ([1]; of limonene in plasma): about 35% | converted to limonene 1,2-diol ([1]; of the initial volume): about 18% | eliminated in the urine ([1]; within 24 hours): about 60% | solubility [6]: do not in water but in ethanol
